# Source: publication PMC7224190, “Pharmacological inhibition of PRMT7 links arginine monomethylation to the cellular stress response” (Nature Communications, 2020)
# Tests used:
# Assay in all cases: biochemical
# Design in all cases: radiometric methyltransferase selectivity assay with tritiated SAM, per cent activity
# Details in all cases: read-out: % of control remaining
# PRMT9 = target: T1, PRMT9 (Homo sapiens, UniProt Q6P2P2)
# T1 sequence (Q6P2P2 1-845): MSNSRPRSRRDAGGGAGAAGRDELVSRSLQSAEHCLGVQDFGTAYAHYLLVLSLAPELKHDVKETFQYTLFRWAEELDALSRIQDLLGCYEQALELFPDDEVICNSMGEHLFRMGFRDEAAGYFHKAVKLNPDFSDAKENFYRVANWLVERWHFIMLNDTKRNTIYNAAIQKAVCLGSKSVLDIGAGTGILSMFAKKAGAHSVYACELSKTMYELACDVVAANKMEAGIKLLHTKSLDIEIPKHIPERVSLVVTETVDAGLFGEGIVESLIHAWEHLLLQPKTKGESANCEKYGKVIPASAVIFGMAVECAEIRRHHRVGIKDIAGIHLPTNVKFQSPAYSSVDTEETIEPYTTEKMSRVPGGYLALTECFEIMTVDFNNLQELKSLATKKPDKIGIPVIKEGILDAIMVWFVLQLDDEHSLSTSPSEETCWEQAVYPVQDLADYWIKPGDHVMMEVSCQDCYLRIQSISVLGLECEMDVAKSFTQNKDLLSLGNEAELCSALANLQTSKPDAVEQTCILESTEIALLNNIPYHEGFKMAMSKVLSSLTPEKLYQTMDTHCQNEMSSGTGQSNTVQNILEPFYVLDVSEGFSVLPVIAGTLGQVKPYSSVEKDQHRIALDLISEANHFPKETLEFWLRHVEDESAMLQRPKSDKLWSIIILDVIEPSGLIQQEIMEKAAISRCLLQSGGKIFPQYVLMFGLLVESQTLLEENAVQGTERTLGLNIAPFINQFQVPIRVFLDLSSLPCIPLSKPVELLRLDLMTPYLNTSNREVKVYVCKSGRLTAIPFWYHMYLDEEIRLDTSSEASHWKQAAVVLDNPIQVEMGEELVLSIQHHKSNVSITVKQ
# Outline: (§1)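 Radiometric methyltransferase assays with ³H-SAM and substrate near apparent Km, compound tested at 1 and 10 μM. Methyl incorporation into biotinylated substrate read by scintillation proximity after guanidine quench; no-compound = 100%, no-enzyme = 0% activity.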
# ASH1L = ASH1L (Homo sapiens, UniProt Q9NR48)
# Outline: as §1
# DNMT3A/3L = DNMT3A/3L (Homo sapiens, UniProt Q9Y6K1)
# DNMT3A/3L, sequence (Q9Y6K1 whole entry, looked up): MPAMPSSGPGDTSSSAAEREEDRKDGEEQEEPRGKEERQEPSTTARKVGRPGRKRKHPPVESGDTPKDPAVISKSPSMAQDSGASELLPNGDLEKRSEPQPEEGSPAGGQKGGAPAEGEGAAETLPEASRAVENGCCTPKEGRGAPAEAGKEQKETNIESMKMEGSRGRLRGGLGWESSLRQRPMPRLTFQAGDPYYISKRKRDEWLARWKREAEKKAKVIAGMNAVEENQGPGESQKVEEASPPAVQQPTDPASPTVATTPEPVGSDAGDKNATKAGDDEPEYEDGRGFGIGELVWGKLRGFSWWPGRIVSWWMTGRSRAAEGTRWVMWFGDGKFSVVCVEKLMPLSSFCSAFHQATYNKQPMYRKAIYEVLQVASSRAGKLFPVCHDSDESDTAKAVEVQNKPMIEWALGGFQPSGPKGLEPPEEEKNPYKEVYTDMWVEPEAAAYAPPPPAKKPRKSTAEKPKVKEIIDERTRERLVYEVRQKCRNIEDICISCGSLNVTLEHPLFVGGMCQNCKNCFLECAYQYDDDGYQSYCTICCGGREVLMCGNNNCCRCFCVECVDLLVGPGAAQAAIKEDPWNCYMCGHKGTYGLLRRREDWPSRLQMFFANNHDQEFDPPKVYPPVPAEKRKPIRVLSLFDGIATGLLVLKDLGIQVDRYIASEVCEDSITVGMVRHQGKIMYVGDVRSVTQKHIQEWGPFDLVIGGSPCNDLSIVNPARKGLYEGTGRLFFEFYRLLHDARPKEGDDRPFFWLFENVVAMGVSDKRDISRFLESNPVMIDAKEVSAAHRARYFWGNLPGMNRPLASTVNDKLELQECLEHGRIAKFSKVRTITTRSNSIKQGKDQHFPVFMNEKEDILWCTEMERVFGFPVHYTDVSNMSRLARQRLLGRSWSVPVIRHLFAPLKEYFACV
# DNMT3A/3L, sequence (Q9UJW3 whole entry partner): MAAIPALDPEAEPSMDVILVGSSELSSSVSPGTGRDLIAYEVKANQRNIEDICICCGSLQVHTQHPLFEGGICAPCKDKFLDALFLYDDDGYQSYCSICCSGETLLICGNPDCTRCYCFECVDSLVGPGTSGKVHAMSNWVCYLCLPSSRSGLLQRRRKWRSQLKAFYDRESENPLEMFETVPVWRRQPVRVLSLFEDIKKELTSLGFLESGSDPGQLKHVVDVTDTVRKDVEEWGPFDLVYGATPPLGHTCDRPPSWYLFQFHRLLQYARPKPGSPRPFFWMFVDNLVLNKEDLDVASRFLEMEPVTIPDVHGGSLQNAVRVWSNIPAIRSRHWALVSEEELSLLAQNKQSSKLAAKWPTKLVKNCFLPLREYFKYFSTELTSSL
SMILES,remaining activity at 1 µM (PRMT9) [%],remaining activity at 10 µM (PRMT9) [%],remaining activity at 1 µM (ASH1L) [%],remaining activity at 10 µM (ASH1L) [%],remaining activity at 1 µM (DNMT3A/3L) [%],remaining activity at 10 µM (DNMT3A/3L) [%]
CC1(C)O[C@@H]2[C@H](O1)[C@@H](CSCCCCNCc1cccc(-c3ccc(Cl)cc3)c1)O[C@H]2n1cnc2c(N)ncnc21 [SGC8158N],106,95,99,102,100,99
Nc1ncnc2c1ncn2[C@@H]1O[C@H](CSCCCCNCc2cccc(-c3ccc(Cl)cc3)c2)[C@@H](O)[C@H]1O [SGC8158],19,4,96,97,100,99
